Results on 8 compounds are retold here after ChEMBL document CHEMBL1147252, “New bromotyrosine derivatives from an association of two sponges, Jaspis wondoensis and Poecillastra wondoensis” (2003).

The term MIC denotes the lowest concentration that inhibits growth of the organism.

What all share (type): functional
The test system of test [1] is Staphylococcus aureus. Kind of test: Antibacterial activity against methicillin-resistant Staphylococcus aureus Y-80-12-844 after 18 hrs.
Test [2] relates to Staphylococcus aureus. Kind of test: Antibacterial activity against methicillin-resistant Staphylococcus aureus 003 after 18 hrs.
The test system of test [3] is Staphylococcus epidermidis. Kind of test: Antibacterial activity against ofloxacin-resistant Staphylococcus epidermidis 291 after 18 hrs.
Test [4] relates to Staphylococcus aureus. Briefly: Antibacterial activity against methicillin-resistant Staphylococcus aureus KIST1 after 18 hrs.
In test [5] the test system is Staphylococcus epidermidis. Kind of test: Antibacterial activity against ofloxacin-resistant Staphylococcus epidermidis 178 after 18 hrs.
Test [6] has as its system Staphylococcus aureus. Kind of test: Antibacterial activity against methicillin-resistant Staphylococcus aureus KIST4 after 18 hrs.
The test system of test [7] is Staphylococcus aureus. Briefly: Antibacterial activity against methicillin-resistant Staphylococcus aureus KIST2 after 18 hrs.
Test [8] relates to Staphylococcus aureus. Briefly: Antibacterial activity against methicillin-resistant Staphylococcus aureus Y-80-12-1999 after 18 hrs.
Test [9] relates to Staphylococcus aureus. Briefly: Antibacterial activity against methicillin-resistant Staphylococcus aureus Y-80-12-1109 after 18 hrs.
Test [10] deals with Staphylococcus aureus. Kind of test: Antibacterial activity against methicillin-resistant Staphylococcus aureus KIST3 after 18 hrs.
The test system of test [11] is Staphylococcus aureus. Briefly: Antibacterial activity against methicillin-resistant Staphylococcus aureus 004 after 18 hrs.
The next test deals with HCT-15. Kind of test: Cytotoxicity against human HCT15 cells. Conditions: read-out: ED50 (the source's name).
The subject of a further test is SK-MEL-2. Kind of test: Cytotoxicity against human SK-MEL-2 cells. Conditions: read-out: ED50 (the source's name).
In the next test the test system is A549. Briefly: Cytotoxicity against human A549 cells. Conditions: read-out: ED50 (the source's name).
Another test has as its system SK-OV-3. Kind of test: Cytotoxicity against human SKOV3 cells. Conditions: read-out: ED50 (the source's name).
Another test has as its system XF498. Briefly: Cytotoxicity against human XF498 cells. Conditions: read-out: ED50 (the source's name).

Molecules are shown by their SMILES. ≈ marks a conversion by molar mass, not a printed value.

In the case of `O=C(NCCSSSCCNC(=O)/C(Cc1ccc(O)c(Br)c1)=N/O)/C(Cc1ccc(O)c(Br)c1)=N/O`, the MIC in the test with Staphylococcus aureus [1] was 25 µg/mL (≈ 35.9 µM); against Staphylococcus aureus [2], 3.1 µg/mL (≈ 4.45 µM); in [3] it was 0.8 µg/mL (≈ 1.15 µM); against Staphylococcus aureus [4], 3.1 µg/mL (≈ 4.45 µM); in test [5], 0.8 µg/mL (≈ 1.15 µM); with Staphylococcus aureus [6] it was 3.1 µg/mL (≈ 4.45 µM). The MIC in the test on Staphylococcus aureus [7] came to 3.1 µg/mL (≈ 4.45 µM); in the test on Staphylococcus aureus [8], 6.3 µg/mL (≈ 9.05 µM); with Staphylococcus aureus [9] it was 6.3 µg/mL (≈ 9.05 µM); against Staphylococcus aureus [10] it was 6.3 µg/mL (≈ 9.05 µM); with Staphylococcus aureus [11] it was 3.1 µg/mL (≈ 4.45 µM).

For `O=C(NCCSSCCNC(=O)/C(Cc1cc(Br)c(O)c(Br)c1)=N/O)/C(Cc1ccc(O)c(Br)c1)=N/O`, the EC50 is 3.31 µg/mL (≈ 4.45 µM) in the test with HCT-15; 0.9 µg/mL (≈ 1.21 µM) with SK-MEL-2; 1.34 µg/mL (≈ 1.8 µM) with A549; 1.38 µg/mL (≈ 1.86 µM) in the test on SK-OV-3; 0.92 µg/mL (≈ 1.24 µM) in the test on XF498. The MIC turned out to be 25 µg/mL (≈ 33.6 µM) against Staphylococcus aureus [1]; 12.5 µg/mL (≈ 16.8 µM) against Staphylococcus aureus [2]; 3.2 µg/mL (≈ 4.31 µM) in test [3]; 12.5 µg/mL (≈ 16.8 µM) with Staphylococcus aureus [4]; 3.2 µg/mL (≈ 4.31 µM) in [5]; 12.5 µg/mL (≈ 16.8 µM) against Staphylococcus aureus [6]. Also, the MIC in the test with Staphylococcus aureus [7], against Staphylococcus aureus [8], against Staphylococcus aureus [9], against Staphylococcus aureus [10] and in the test on Staphylococcus aureus [11] was 12.5 µg/mL (≈ 16.8 µM) in each case.

Turning to `O=C(NCCSSCCNC(=O)/C(Cc1cc(Br)c(O)c(-c2cc(C/C(=N\O)C(=O)NCCSSCCNC(=O)/C(Cc3ccc(O)c(Br)c3)=N/O)cc(Br)c2O)c1)=N/O)/C(Cc1ccc(O)c(Br)c1)=N/O` [BISAPRASIN], the EC50 turned out to be 6 µg/mL (≈ 4.52 µM) in the test with HCT-15; 2.94 µg/mL (≈ 2.22 µM) in the test on SK-MEL-2; 3.4 µg/mL (≈ 2.56 µM) in the test with A549; 2.78 µg/mL (≈ 2.1 µM) in the test with SK-OV-3; 2.44 µg/mL (≈ 1.84 µM) with XF498. Also, the MIC came out at 25 µg/mL (≈ 18.8 µM) against Staphylococcus aureus [1]; 12.5 µg/mL (≈ 9.42 µM) with Staphylococcus aureus [2]; 12.5 µg/mL (≈ 9.42 µM) in [3]; 12.5 µg/mL (≈ 9.42 µM) against Staphylococcus aureus [4]; 6.3 µg/mL (≈ 4.75 µM) in test [5]; 6.3 µg/mL (≈ 4.75 µM) in the test with Staphylococcus aureus [6]. Also, the MIC worked out at 6.3 µg/mL (≈ 4.75 µM) in the test on Staphylococcus aureus [7]; 50 µg/mL (≈ 37.7 µM) against Staphylococcus aureus [8]; 50 µg/mL (≈ 37.7 µM) with Staphylococcus aureus [9]; 6.3 µg/mL (≈ 4.75 µM) against Staphylococcus aureus [10]; 6.3 µg/mL (≈ 4.75 µM) with Staphylococcus aureus [11].

In the case of `O=C(NCCSSCCNC(=O)/C(Cc1ccc(Oc2cc(C/C(=N\O)C(=O)NCCSSCCNC(=O)/C(Cc3ccc(O)c(Br)c3)=N/O)cc(Br)c2O)c(Br)c1)=N/O)/C(Cc1ccc(O)c(Br)c1)=N/O` [BISPSAMMAPLIN A], the EC50 with HCT-15 is 3.35 µg/mL (≈ 2.52 µM); in the test with SK-MEL-2 it was 1.02 µg/mL (≈ 0.769 µM); with A549, 1.53 µg/mL (≈ 1.15 µM); in the test on SK-OV-3, 1.52 µg/mL (≈ 1.15 µM); in the test on XF498, 1.1 µg/mL (≈ 0.829 µM). The MIC (in the test on Staphylococcus aureus [1]; against Staphylococcus aureus [2]; in [3]; in the test on Staphylococcus aureus [4]; in test [5]; against Staphylococcus aureus [6]) was over 50 µg/mL throughout. The MIC in the test with Staphylococcus aureus [7], with Staphylococcus aureus [8], with Staphylococcus aureus [9], against Staphylococcus aureus [10] and in the test on Staphylococcus aureus [11] was over 50 µg/mL throughout.

For the compound `COc1cccc2c1C(=O)c1c(O)c3c(c(O)c1C2=O)C[C@@](O)(C(=O)CO)C[C@@H]3O[C@H]1C[C@H](N)[C@H](O)[C@H](C)O1` [DOXORUBICIN], the EC50 in the test with HCT-15 was determined as 0.09 µg/mL (≈ 0.166 µM); in the test with SK-MEL-2 it was 0.03 µg/mL (≈ 0.0552 µM); in the test on A549 it was 0.04 µg/mL (≈ 0.0736 µM); in the test with SK-OV-3 it was 0.15 µg/mL (≈ 0.276 µM); in the test with XF498, 0.1 µg/mL (≈ 0.184 µM).

As to `C[C@@H](O)[C@H]1C(=O)N2C(C(=O)O)=C(S[C@@H]3CN[C@H](C(=O)N(C)C)C3)[C@H](C)[C@H]12` [MEROPENEM], the minimum inhibitory concentration (MIC) in the test on Staphylococcus aureus [1] came out at 50 µg/mL (≈ 130 µM); with Staphylococcus aureus [2], 3.1 µg/mL (≈ 8.08 µM); in test [3], 1.6 µg/mL (≈ 4.17 µM); in the test with Staphylococcus aureus [4], 25 µg/mL (≈ 65.2 µM); in [5], 0.8 µg/mL (≈ 2.09 µM); in the test on Staphylococcus aureus [6], 50 µg/mL (≈ 130 µM). Moreover, the MIC against Staphylococcus aureus [7] was found to be 3.1 µg/mL (≈ 8.08 µM); against Staphylococcus aureus [8] it was 50 µg/mL (≈ 130 µM); against Staphylococcus aureus [9], 50 µg/mL (≈ 130 µM); in the test on Staphylococcus aureus [10], 50 µg/mL (≈ 130 µM); with Staphylococcus aureus [11], 3.1 µg/mL (≈ 8.08 µM).

Regarding `O=C(NCCSSCCNC(=O)/C(Cc1ccc(O)c(Br)c1)=N/O)/C(Cc1ccc(O)c(Br)c1)=N/O` [PSAMMAPLIN A], the EC50 in the test with HCT-15 was found to be 0.68 µg/mL (≈ 1.02 µM); in the test with SK-MEL-2 it was 0.13 µg/mL (≈ 0.196 µM); in the test with A549, 0.57 µg/mL (≈ 0.858 µM); with SK-OV-3, 0.14 µg/mL (≈ 0.211 µM); with XF498, 0.57 µg/mL (≈ 0.858 µM).

Consider `COC(=O)NCCSSCCNC(=O)/C(Cc1ccc(O)c(Br)c1)=N/O` [PSAMMAPLIN D], for which the EC50 turned out to be 1.23 µg/mL (≈ 2.64 µM) in the test on HCT-15; 0.2 µg/mL (≈ 0.429 µM) in the test on SK-MEL-2; 0.8 µg/mL (≈ 1.72 µM) in the test on A549; 0.17 µg/mL (≈ 0.365 µM) in the test on SK-OV-3; 0.6 µg/mL (≈ 1.29 µM) with XF498. In addition, the MIC (against Staphylococcus aureus [1]; with Staphylococcus aureus [2]; in [3]; against Staphylococcus aureus [4]; in test [5]; in the test with Staphylococcus aureus [6]) was over 25 µg/mL throughout. Also, the MIC against Staphylococcus aureus [7], in the test on Staphylococcus aureus [8], against Staphylococcus aureus [9], against Staphylococcus aureus [10] and in the test with Staphylococcus aureus [11] was over 25 µg/mL in each case.
